The values below come from patent US9463252B2, “Auristatin drug linker conjugates” (priority 2008, dated 2016).

One assay deals with 786-O. The assay is described as follows: Cytotoxicity of Auristatin-Peptide-h1F6 conjugates, resazurin assay. Conditions: for IC50 786-0: Table 4, ~4 drugs/Ab. In kind it is cell-based, human. From the text:
(§1) The conjugates contain approximately 4 drugs per antibody.
A general note: Alamar Blue is a resazurin reagent that responds to reducing activity.

In a further assay the test system is LP-1. The assay is described as above. Type of assay: cell-based, human.
Excerpt: as §1

A further assay deals with Caki-1. The assay is described as above. Type of assay: cell-based.
Excerpt: as §1

The test system of assay [1] is L428. The description is as above. Type of assay: cell-based. Conditions: for IC50 L428: Table 4, ~4 drugs/Ab.
Excerpt: as §1

The next assay deals with U251. The assay is described as above. In kind it is cell-based. Conditions: Table 4, ~4 drugs/Ab.
Excerpt: as §1

The subject of a further assay is UMRC-3. The description is as above. In kind it is cell-based.
Excerpt: as §1

The next assay has as its system HCT-116 (CD70−). Nature of the assay: Cytotoxicity of Auristatin-Peptide-h1F6 conjugates, CD70- control cell line. Conditions: Table 4, ~4 drugs/Ab. In kind it is cell-based.
Excerpt: as §1

In a further assay the test system is Karpas 299. Nature of the assay: Cytotoxicity of Auristatin-Peptide-cAC10 conjugates on CD30+ cells. In kind it is cell-based, human. Conditions: Table 6, ~4 drugs/Ab. The method, then:
(§2) Following the procedure described in Example 57, Auristatin-Dipeptide-cAC10 antibody conjugates were evaluated on CD30+ positive cell lines, Karpas 299, L428 and L540cy. In addition, a control conjugate, cAC10-vc-PABC-MMAF, was used. […] The conjugates contain approximately 4 drugs per antibody.
(§3) Following the procedure described as Examples 57 and 58, the activities of Auristatin-Peptide-cAC10 conjugates were evaluated on CD30^+ cells, such as Karpas 299, L428, and L540cy. The activities of Auristatin-Peptide-hBU12 conjugates were evaluated on CD19^+ cells such as Ramos, SUDHL-4, and ARH-77. The activities of Auristatin-Peptide-anti-LIV-1 conjugates were evaluated on LIV-1 positive cell lines MCF-7 and SKOV-3. The activities of Auristatin-Peptide-BR96 conjugates were evaluated on Le^y positive cells H3396, RCA, and L2987. All conjugates contain approximately 4 drugs per antibody.

For the next assay, the system named is L540cy. The description is as above. In kind it is cell-based, human. Conditions: Table 6, ~4 drugs/Ab. The procedure: as §2, §3
The test system of assay [2] is L428. The assay is described as above. Type of assay: cell-based. Conditions: Table 6, ~4 drugs/Ab. The method, then:
as §2, §3

[3] abbreviates: Table 4, h1F6 conjugates, ~4 drugs/Ab.
Setting [4] is: Table 8, h1F6 conjugates, D vs L amino acid in second linker position.
The mark [5] stands for this setting: Table 9, h1F6-Drug(4) conjugates, mono- vs dipeptide linker.

As to “AF-Asparagine-Valine-diaminoethane-propionyl-maleimide [AF-Asn-Val]”, the “IC50 786-0” value with 786-O (h1F6 conjugates) is on record as 12.6 ng/mL. Moreover, the “IC50 LP-1” value in the assay with LP-1 (setting [3]) was 174 ng/mL. In the assay on Caki-1 (setting [3]), the “IC50 Caki-1” value amounted to 22.3 ng/mL. For the same substance, the “IC50 L428” value with L428 [1] (h1F6 conjugates) is 11.7 ng/mL. Also, in the assay on U251, the “IC50 U251” value is 251 ng/mL. Further, the “IC50 UMRC-3” value with UMRC-3 (setting [3]) came out at 46.8 ng/mL. In the assay on HCT-116 (CD70−), the “IC50 HCT-116 (CD70−)” value is recorded as >1000 ng/mL.

As for “AF-AsparticAcid-Valine-Diaminoethane-Propionyl-Maleimide [AF-Asp-Val]”, the “IC50 786-0” value in the assay on 786-O (h1F6 conjugates) was found to be 18 ng/mL. For the same substance, the “IC50 LP-1” value with LP-1 (setting [3]) came to 234 ng/mL. Further, the “IC50 Caki-1” value in the assay on Caki-1 (setting [3]) was found to be 25 ng/mL. The “IC50 L428” value with L428 [1] (h1F6 conjugates) turned out to be 18 ng/mL. Also, in the assay with U251, the “IC50 U251” value is 407 ng/mL. Further, in the assay with UMRC-3 (setting [3]), the “IC50 UMRC-3” value turned out to be 54 ng/mL. Further, the “IC50 HCT-116 (CD70−)” value with HCT-116 (CD70−) is listed as >1000 ng/mL.

As for “AF-Methionine-(L)Lysine-diaminoethane-propionyl maleimide [AF-Met-(L)Lys]”, the “IC50 786-O” value in the assay on 786-O (setting [4]) is 7 ng/mL. The “IC50 LP-1” value in the assay with LP-1 (setting [4]) worked out at 95 ng/mL. In addition, in the assay on Caki-1 (setting [4]), the “IC50 Caki-1” value is 4 ng/mL. In addition, in the assay on L428 [1] (setting [4]), the “IC50 L-428” value worked out at 3 ng/mL. Moreover, the “IC50 UMRC-3” value in the assay on UMRC-3 (setting [4]) turned out to be 22 ng/mL.

Regarding “AF-Asparagine-(L)Lysine-diaminoethane-propionyl maleimide [AF-Asn-(L)Lys]”, the “IC50 786-O” value in the assay on 786-O (setting [4]) is given as 9 ng/mL. Moreover, in the assay on LP-1 (setting [4]), the “IC50 LP-1” value was 501 ng/mL. Moreover, the “IC50 Caki-1” value in the assay on Caki-1 (setting [4]) turned out to be 8 ng/mL. The “IC50 L-428” value in the assay with L428 [1] (setting [4]) amounted to 8 ng/mL. Besides, in the assay on UMRC-3 (setting [4]), the “IC50 UMRC-3” value is 26 ng/mL.

Consider “AF-Norvaline-(D)Aspartic Acid-diaminoethane-propionyl maleimide [AF-NorVal-(D)Asp]”, for which the “IC50 786-0” value with 786-O (h1F6 conjugates) is given as 28 ng/mL. The “IC50 LP-1” value in the assay with LP-1 (setting [3]) is given as 537 ng/mL. Further, the “IC50 Caki-1” value with Caki-1 (setting [3]) stood at 12 ng/mL. The “IC50 L428” value in the assay with L428 [1] (h1F6 conjugates) amounted to 24 ng/mL; with L428 [2], 0.09 ng/mL. Further, the “IC50 U251” value in the assay with U251 was found to be 78 ng/mL. In addition, the “IC50 UMRC-3” value in the assay on UMRC-3 (setting [3]) came out at 25 ng/mL. Also, the “IC50 HCT-116 (CD70−)” value in the assay with HCT-116 (CD70−) is listed as >1000 ng/mL. Also, the “IC50 Karpas 299” value in the assay with Karpas 299 is on record as 0.5 ng/mL. In addition, the “IC50 L540cy” value with L540cy is 0.6 ng/mL.

In the case of “AF-Trimethyllysine-Proline-diaminoethane-propionyl-maleimide [AF-Me3Lys-Pro]”, the “IC50 786-0” value in the assay with 786-O (h1F6 conjugates) is recorded as 20 ng/mL. Moreover, the “IC50 LP-1” value with LP-1 (setting [3]) is recorded as 298 ng/mL. Also, the “IC50 Caki-1” value in the assay with Caki-1 (setting [3]) was 11 ng/mL. The “IC50 L428” value in the assay with L428 [1] (h1F6 conjugates) came out at 24 ng/mL; in the assay on L428 [2], 0.09 ng/mL. Besides, the “IC50 U251” value in the assay with U251 was 78 ng/mL. In addition, the “IC50 UMRC-3” value with UMRC-3 (setting [3]) worked out at 30 ng/mL. For the same substance, in the assay on HCT-116 (CD70−), the “IC50 HCT-116 (CD70−)” value is given as >1000 ng/mL. The “IC50 Karpas 299” value with Karpas 299 is listed as 0.6 ng/mL. Further, the “IC50 L540cy” value with L540cy was 0.8 ng/mL.

For the substance “AF-Tyrosine-(D)Aspartic Acid-diaminoethane-propionyl maleimide [AF-Tyr-(D)Asp]”, the “IC50 786-0” value with 786-O (h1F6 conjugates) is recorded as 24 ng/mL. The “IC50 LP-1” value with LP-1 (setting [3]) is 398 ng/mL. Moreover, in the assay on Caki-1 (setting [3]), the “IC50 Caki-1” value stood at 9 ng/mL. Moreover, the figures for the “IC50 L428” value in the assay with L428 [1] (h1F6 conjugates) and in the assay with L428 [2] were 27 ng/mL and 0.06 ng/mL, respectively. In addition, the “IC50 U251” value with U251 was found to be 72 ng/mL. In addition, in the assay with UMRC-3 (setting [3]), the “IC50 UMRC-3” value is on record as 32 ng/mL. The “IC50 HCT-116 (CD70−)” value in the assay on HCT-116 (CD70−) is >1000 ng/mL. Also, the “IC50 Karpas 299” value with Karpas 299 turned out to be 0.6 ng/mL. The “IC50 L540cy” value in the assay on L540cy was determined as 0.7 ng/mL.

With “AF-Methionine-diaminoethane-propionyl maleimide”, in the assay with 786-O (setting [5]), the “IC50 786-O” value is recorded as 8 ng/mL. For the same substance, in the assay on LP-1 (setting [5]), the “IC50 LP-1” value is reported as 110 ng/mL. The “IC50 Caki-1” value with Caki-1 (setting [5]) worked out at 6 ng/mL. The “IC50 L-428” value with L428 [1] (setting [5]) is reported as 3 ng/mL. For the same substance, the “IC50 UMRC-3” value with UMRC-3 (setting [5]) worked out at 17 ng/mL.
